Experimental data from patent US20250073358A1, “AROMATIC VINYL COMPOUND, METAL COMPLEX THEREOF, AND PREPARATION METHOD THEREFOR AND USE THEREOF” (SHANGHAI MAXINOVEL PHARMACEUTICALS CO., LTD., priority 2021, published 2025).

Key:
[1] = molecular target: PD-1/PD-L1 (Homo sapiens (Human), UniProt Q9NZQ7); experiment: Homogenouse Time-Resolved Fluorescence (HTRF) binding assay, PD-1/PD-L1
Description: Homogenouse Time-Resolved Fluorescence (HTRF) binding assay was used to detect the binding ability of the compound of the present disclosure to PD-1/PD-L1.
The purchased kit (CisBio, #64CUS000C-1) contains reagents required for experiments such as PD-1, PD-L1, anti-tag1-Eu, Anti-tag2-XL665, Dilute Buffer, and Detection Buffer.
• 1. The compound was configured with 100% DMSO into 10 concentrations with a concentration gradient of 3 times. • 2. The DMSO solution of the compound was added to Dilute Buffer solution, and the mixture was mixed well and transferred to a 96-well plate. • 3. PD-L1 was diluted with Dilute Buffer solution and then added to the above 96-well plate. • 4. PD-1 was diluted with Dilute Buffer solution and then added to the above 96-well plate, and incubated at room temperature for 30 minutes. • 5. One part of anti-tag1-Eu and one part of Anti-tag2-XL665 were added to Detection Buffer solution, and the mixture was mixed well and transferred to the above 96-well plate. • 6. The mixture in the 96-well plate was incubated at room temperature for 1 to 24 hours. • 7. The HTRF values were read with Envision.

[2] = system: tumor; experiment: Inhibitory effect on tumor in tumor-bearing mice; type: in vivo, C57/BL6 mice; conditions: tail vein injection, 45 MBq per mouse, compared with the control group (PBS)
From the text: • 1. Inhibitory effect of compound 78 on tumor • 1.1 Experimental animal information: tumor-bearing C57/BL6 mice; SPF grade; weight range: 17-20 g; Shanghai Qi'up Biomedical Technology Co., Ltd. • 1.2 Experimental process
Ten tumor-bearing mice with tumor volumes of 10-100 mm^3 were systematically and randomly divided into 2 groups according to tumor size, with 5 mice in each group, corresponding to PBS and compound 78 respectively. After anesthesia with isoflurane, tumor-bearing mice were injected into the tail vein with compound 78 with 45 MBq (approximately 1.2 mCi) per mouse and a volume of 0.2 mL. After administration, the tumor size and weight of the animals were measured periodically, and the tumor growth curve was drawn to understand the inhibitory effect of the drug on tumor.

[3] = system: MC38-PDL1 tumor (MC-38-hPD-L1 cells); experiment: Tumor targeting study in Micro-PET/CT scanning, bilateral tumor model (Effect Embodiment 4), left tumor; type: in vivo, C57BL/6J mice; conditions: Micro-PET/CT imaging, bilateral tumor mice
Description: • Tumor targeting study of compound 80 in Micro-PET/CT scanning • Experimental animal information: C57BL/6J mice, SPF grade; 15-21 g; • Construction of Bilateral Tumor Model Mice: • Cell Culture
Human-derived PD-L1 gene knock-in MC-38 cells (MC-38-hPD-L1 cells) were adherently cultured in vitro, and the culture conditions were DMEM medium plus 10% heat-inactivated fetal bovine serum and hygromycinB (final concentration was […]), and the cells were cultured at 37° C. with 5% CO2. Subculture of 2-3 times a week. When the cells were in the exponential growth phase, the cells were harvested, counted, and the left side of the mice was inoculated subcutaneously.
Mouse-derived MC-38 cells were adherently cultured in vitro, and the culture conditions were DMEM medium plus 10% heat-inactivated fetal bovine serum, and the cells were cultured at 37° C. with 5% CO2. Subculture of 2-3 times a week. When the cells were in the exponential growth phase, the cells were collected, counted, and the right side of the mice was inoculated subcutaneously.
100 μL of 1×10^6 MC-38-hPD-L1 cell suspension was inoculated subcutaneously on the left dorsal side of C57BL/6J mice. The same mice were subcutaneously inoculated with 100 μL of 1×10^6 MC-38 cell suspension on the right dorsal side on the second day. After inoculation, the mice were fed normally, and after a certain number of days, tumor-bearing mice with the volume of bilateral transplanted tumor in the range of 150 mm^3−350 mm^3 were selected for test.
After quality control, compound 80 was diluted with 10% ethanol in physiological saline, and the drug was extracted and injected into each animal through tail vein. The administration volume was 100 μL/animal, and the administration dose was 100-200 μCi/animal. The study of Micro-PET/CT imaging was performed at 0.5 h, 1.5 h, 2.5 h, 3.5 h after injection of compound 80.

Chain of PD-1/PD-L1 (Q9NZQ7 19-238): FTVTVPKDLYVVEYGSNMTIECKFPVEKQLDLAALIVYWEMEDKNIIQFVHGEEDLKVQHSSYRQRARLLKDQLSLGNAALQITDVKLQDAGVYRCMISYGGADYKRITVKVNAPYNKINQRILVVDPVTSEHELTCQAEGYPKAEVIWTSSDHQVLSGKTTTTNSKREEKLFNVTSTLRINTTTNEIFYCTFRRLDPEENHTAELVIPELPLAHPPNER

Structure (SMILES) | IC50 [1] [nM] | uptake value of left tumor (MC38-PDL1) compared with right tumor (MC38) [3] | inhibition of tumor growth [2]
Cc1c(/C=C/c2cc(OCC3CCN(C(=O)CN4CCN(CC(=O)O)CCN(CC(=O)O)CCN(CC(=O)O)CC4)CC3)c(CN3CCCC[C@H]3C(=O)O)cc2C(F)(F)F)cccc1-c1ccccc1 [Compound 37] | 0.729 | significantly higher | –
Cc1ccc(CCCC(=O)NCCCC[C@H](NC(=O)CN2CCN(CC(=O)O)CCN(CC(=O)O)CCN(CC(=O)O)CC2)C(=O)NCC2CCC(C(=O)NCCOc3cc(/C=C/c4cccc(-c5ccccc5)c4C)c(C(F)(F)F)cc3CN3CCCC[C@H]3C(=O)O)CC2)cc1 (stereo partly drawn) [Compound 22] | 5.03 | – | very good therapeutic effects on inhibiting tumor growth
Cc1c(/C=C/c2cc(OCCOCCN3CCN(CC(=O)O)CCN(CC(=O)O)CCN(CC(=O)O)CC3)c(CN3CCCC[C@H]3C(=O)O)cc2C(F)(F)F)cccc1-c1ccccc1 [Compound 6] | 2.66 | – | very good therapeutic effects on inhibiting tumor growth
Cc1c(/C=C/c2cc(OCCOCCN3CCN(CC(=O)[O-])CCN(CC(=O)[O-])CCN(CC(=O)[O-])CC3)c(CN3CCCC[C@H]3C(=O)O)cc2C(F)(F)F)cccc1-c1ccccc1.[177Lu+3] [Compound 77] | – | – | very good therapeutic effects on inhibiting tumor growth
Cc1ccc(CCCC(=O)NCCCC[C@H](NC(=O)CN2CCN(CC(=O)O)CCN(CC(=O)O)CCN(CC(=O)O)CC2)C(=O)NCCCCCCOc2cc(/C=C/c3cccc(-c4ccccc4)c3C)c(C(F)(F)F)cc2CN2CCCC[C@H]2C(=O)O)cc1 [Compound 26] | 33.2 | – | very good therapeutic effects on inhibiting tumor growth
Cc1c(/C=C/c2cc(OCC3CCN(C(=O)CN4CCN(CC(=O)O)CCN(CC(=O)O)CCN(CC(=O)O)CC4)CC3)c(CN3CCCC[C@H]3C(=O)O)cc2C(F)(F)F)cccc1-c1ccccc1 [Compound 20] | 1.01 | – | very good therapeutic effects on inhibiting tumor growth
Cc1c(/C=C/c2cc(OCCCCCCNC(=O)CN3CCN(CC(=O)[O-])CCN(CC(=O)[O-])CCN(CC(=O)[O-])CC3)c(CN3CCCC[C@H]3C(=O)O)cc2C(F)(F)F)cccc1-c1ccccc1.[Lu+3] [Compound 24] | 0.785 | – | very good therapeutic effects on inhibiting tumor growth
Cc1cc(CN2CCCC[C@H]2C(=O)O)c(OCCOC(=O)CN2CCN(CC(=O)[O-])CCN(CC(=O)[O-])CCN(CC(=O)[O-])CC2)cc1/C=C/c1cccc(-c2ccccc2)c1C#N.[177Lu+3] [Compound 76] | – | – | very good therapeutic effects on inhibiting tumor growth
Cc1ccc(CCCC(=O)NCCCC[C@H](NC(=O)CN2CCN(CC(=O)O)CCN(CC(=O)O)CCN(CC(=O)O)CC2)C(=O)NCC2CCC(C(=O)NCCOc3cc(/C=C/c4cccc(-c5ccccc5)c4C)c(C(F)(F)F)cc3CN3CCCC[C@H]3C(=O)O)CC2)cc1 (stereo partly drawn) [Compound 21] | 3.74 | – | –
Cc1c(/C=C/c2cc(OCCCCCCNC(=O)CN3CCN(CC(=O)[O-])CCN(CC(=O)[O-])CCN(CC(=O)[O-])CC3)c(CN3CCCC[C@H]3C(=O)O)cc2C(F)(F)F)cccc1-c1ccccc1.[Ga+3] [Compound 28] | 0.562 | significantly higher | –
N#Cc1c(-c2ccccc2)ccnc1/C=C/c1cc(OCC2CCN(C(=O)CN3CCN(CC(=O)[O-])CCN(CC(=O)[O-])CCN(CC(=O)[O-])CC3)CC2)c(CN2CCCC[C@H]2C(=O)O)cc1C(F)(F)F.[Lu+3] [Compound 44] | – | – | very good therapeutic effects on inhibiting tumor growth

Now from value to molecule, other results behind:

IC50 [1] [nM] | uptake value of left tumor (MC38-PDL1) compared with right tumor (MC38) [3] | Structure (SMILES) | inhibition of tumor growth [2]
0.95 | – | Cc1c(/C=C/c2cc(OCCNC(=O)C3CCC(CNC(=O)CN4CCN(CC(=O)O)CCN(CC(=O)O)CCN(CC(=O)O)CC4)CC3)c(CN3CCCC[C@H]3C(=O)O)cc2C(F)(F)F)cccc1-c1ccccc1 (stereo partly drawn) [Compound 14] | very good therapeutic effects on inhibiting tumor growth
47.7 | – | Cc1c(/C=C/c2cc(OCCOCCN3CCN(CC(=O)O)CCN(CC(=O)O)CCN(CC(=O)O)CC3)c(CN3CCCC[C@@H]3C(=O)O)cc2C(F)(F)F)cccc1-c1ccccc1 [Compound 70] | very good therapeutic effects on inhibiting tumor growth
0.521 | significantly higher | Cc1c(/C=C/c2cc(OCCNC(=O)C3CCN(C(=O)CN4CCN(CC(=O)O)CCN(CC(=O)O)CCN(CC(=O)O)CC4)CC3)c(CN3CCCC[C@H]3C(=O)O)cc2C(F)(F)F)cccc1-c1ccccc1 [Compound 36] | –
12.4 | – | Cc1ccc(CCCC(=O)NCCCC[C@H](NC(=O)CN2CCN(CC(=O)O)CCN(CC(=O)O)CCN(CC(=O)O)CC2)C(=O)NCCOCCOc2cc(/C=C/c3cccc(-c4ccccc4)c3C)c(C(F)(F)F)cc2CN2CCCC[C@H]2C(=O)O)cc1 [Compound 32] | very good therapeutic effects on inhibiting tumor growth
1.13 | – | Cc1c(/C=C/c2cc(OCCNC(=O)C3CCN(C(=O)CN4CCN(CC(=O)O)CCN(CC(=O)O)CCN(CC(=O)O)CC4)CC3)c(CN3CCCC[C@H]3C(=O)O)cc2C(F)(F)F)cccc1-c1ccccc1 [Compound 38] | very good therapeutic effects on inhibiting tumor growth
300 | – | Cc1ccc(CCCC(=O)NCCCC[C@H](NC(=O)CN2CCN(CC(=O)O)CCN(CC(=O)O)CCN(CC(=O)O)CC2)C(=O)NCCOc2cc(/C=C/c3cccc(-c4ccccc4)c3C)c(C(F)(F)F)cc2CN2CCCC[C@H]2C(=O)O)cc1 [Compound 13] | very good therapeutic effects on inhibiting tumor growth
0.766 | significantly higher | Cc1c(/C=C/c2cc(OCCNC(=O)C3CCC(CNC(=O)CN4CCN(CC(=O)O)CCN(CC(=O)O)CCN(CC(=O)O)CC4)CC3)c(CN3CCCC[C@H]3C(=O)O)cc2C(F)(F)F)cccc1-c1ccccc1 (stereo partly drawn) [Compound 35] | –
32.5 | – | Cc1ccc(CCCC(=O)NCCCC[C@H](NC(=O)CN2CCN(CC(=O)O)CCN(CC(=O)O)CCN(CC(=O)O)CC2)C(=O)NCCCCOc2cc(/C=C/c3cccc(-c4ccccc4)c3C)c(C(F)(F)F)cc2CN2CCCC[C@H]2C(=O)O)cc1 [Compound 12] | very good therapeutic effects on inhibiting tumor growth
– | significantly higher | Cc1c(/C=C/c2cc(OCCOCCN3CCN(CC(=O)[O-])CCN(CC(=O)[O-])CCN(CC(=O)[O-])CC3)c(CN3CCCC[C@H]3C(=O)O)cc2C(F)(F)F)cccc1-c1ccccc1.[68Ga+3] [Compound 75] | –
0.969 | significantly higher | Cc1c(/C=C/c2cc(OCCOCCN3CCN(CC(=O)O)CCN(CC(=O)O)CCN(CC(=O)O)CC3)c(CN3CCCC[C@H]3C(=O)O)cc2C(F)(F)F)cccc1-c1ccccc1 [Compound 7] | –
1.42 | – | Cc1c(/C=C/c2cc(OCCCCCNC(=O)CN3CCN(CC(=O)O)CCN(CC(=O)O)CCN(CC(=O)O)CC3)c(CN3CCCC[C@H]3C(=O)O)cc2C(F)(F)F)cccc1-c1ccccc1 [Compound 16] | –
5.33 | – | Cc1cc(CN2CCCC[C@H]2C(=O)O)c(OCCOC(=O)CN2CCN(CC(=O)[O-])CCN(CC(=O)[O-])CCN(CC(=O)[O-])CC2)cc1/C=C/c1cccc(-c2ccccc2)c1C#N.[Lu+3] [Compound 15] | very good therapeutic effects on inhibiting tumor growth
112 | – | Cc1cc(CN2CCCC[C@H]2C(=O)O)c(OCCCCCN2CCN(CC(=O)O)CCN(CC(=O)O)CCN(CC(=O)O)CC2)cc1/C=C/c1cccc(-c2ccccc2)c1C [Compound 72] | very good therapeutic effects on inhibiting tumor growth
